# Data taken from ChEMBL document CHEMBL4507270 (2021).
# The source made the active and inactive calls. The calls are words filed in the database; no cut-off is given here.
# Experiments:
# [1] = target: Epidermal growth factor receptor (Homo sapiens) (UniProt P00533)
# [2] = target: Tyrosine-protein kinase JAK3 (Homo sapiens) (UniProt P52333)
# [3] = target: TRAF2 and NCK-interacting protein kinase (Homo sapiens) (UniProt Q9UKE5)
# [4] = target: Rho-associated protein kinase 2 (Homo sapiens) (UniProt O75116)
# [5] = target: MAP/microtubule affinity-regulating kinase 4 (Homo sapiens) (UniProt Q96L34)
# [6] = target: Mitogen-activated protein kinase kinase kinase 5 (Homo sapiens) (UniProt Q99683)
# [7] = target: Dual specificity mitogen-activated protein kinase kinase 6 (Homo sapiens) (UniProt P52564)
# Sequence of Dual specificity mitogen-activated protein kinase kinase 6 (Homo sapiens) (P52564 whole entry): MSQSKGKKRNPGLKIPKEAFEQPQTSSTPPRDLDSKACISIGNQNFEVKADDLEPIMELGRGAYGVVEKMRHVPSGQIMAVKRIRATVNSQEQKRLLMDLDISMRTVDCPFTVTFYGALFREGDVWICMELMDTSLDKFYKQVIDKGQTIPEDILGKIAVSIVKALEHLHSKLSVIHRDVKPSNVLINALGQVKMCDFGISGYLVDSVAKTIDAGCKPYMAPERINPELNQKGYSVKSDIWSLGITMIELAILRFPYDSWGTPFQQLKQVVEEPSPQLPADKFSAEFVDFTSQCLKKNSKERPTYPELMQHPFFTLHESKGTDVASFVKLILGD
# [8] = target: Serine/threonine-protein kinase 3 (Homo sapiens) (UniProt Q13188)
# [9] = target: Serine/threonine-protein kinase 38-like (Homo sapiens) (UniProt Q9Y2H1)
# [10] = target: Alpha-2C adrenergic receptor (Homo sapiens) (UniProt P18825); settings: Compound concentration 10.0 uM
# [11] = target: Protein kinase C theta type (Homo sapiens) (UniProt Q04759)
# [12] = target: Epithelial discoidin domain-containing receptor 1 (Homo sapiens, UniProt Q08345)
# [13] = target: T1, Discoidin domain-containing receptor 2 (Homo sapiens, UniProt Q16832); test: NanoBRET assay (SGC Frankfurt) with DDR2
# T1 sequence (Q16832 whole entry): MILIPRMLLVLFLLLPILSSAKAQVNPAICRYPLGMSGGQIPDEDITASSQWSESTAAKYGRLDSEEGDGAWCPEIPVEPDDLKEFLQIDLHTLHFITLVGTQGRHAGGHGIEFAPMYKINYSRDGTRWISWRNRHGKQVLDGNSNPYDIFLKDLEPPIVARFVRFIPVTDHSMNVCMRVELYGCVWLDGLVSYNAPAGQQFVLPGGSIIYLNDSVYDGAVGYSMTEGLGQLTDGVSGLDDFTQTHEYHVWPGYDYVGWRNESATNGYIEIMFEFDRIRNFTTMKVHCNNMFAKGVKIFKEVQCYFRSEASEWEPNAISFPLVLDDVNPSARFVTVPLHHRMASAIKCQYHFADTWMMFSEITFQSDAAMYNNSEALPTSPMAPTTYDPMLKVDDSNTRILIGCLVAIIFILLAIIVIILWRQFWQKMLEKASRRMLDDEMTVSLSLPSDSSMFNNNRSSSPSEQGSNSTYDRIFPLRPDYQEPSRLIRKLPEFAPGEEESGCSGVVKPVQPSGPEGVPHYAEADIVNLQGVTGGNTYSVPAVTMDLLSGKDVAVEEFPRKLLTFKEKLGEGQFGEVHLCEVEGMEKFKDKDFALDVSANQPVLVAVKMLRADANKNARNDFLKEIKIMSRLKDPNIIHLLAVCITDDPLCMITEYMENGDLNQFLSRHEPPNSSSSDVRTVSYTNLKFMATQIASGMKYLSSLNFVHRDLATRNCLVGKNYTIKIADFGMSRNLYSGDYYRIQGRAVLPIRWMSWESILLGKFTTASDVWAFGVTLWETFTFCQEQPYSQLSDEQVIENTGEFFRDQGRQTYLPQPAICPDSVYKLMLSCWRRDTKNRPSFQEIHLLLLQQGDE
# [14] = target: Mitogen-activated protein kinase 7 (Homo sapiens) (UniProt Q13164)
# Sequence of Mitogen-activated protein kinase 7 (Homo sapiens) (Q13164 2-816 limits assumed): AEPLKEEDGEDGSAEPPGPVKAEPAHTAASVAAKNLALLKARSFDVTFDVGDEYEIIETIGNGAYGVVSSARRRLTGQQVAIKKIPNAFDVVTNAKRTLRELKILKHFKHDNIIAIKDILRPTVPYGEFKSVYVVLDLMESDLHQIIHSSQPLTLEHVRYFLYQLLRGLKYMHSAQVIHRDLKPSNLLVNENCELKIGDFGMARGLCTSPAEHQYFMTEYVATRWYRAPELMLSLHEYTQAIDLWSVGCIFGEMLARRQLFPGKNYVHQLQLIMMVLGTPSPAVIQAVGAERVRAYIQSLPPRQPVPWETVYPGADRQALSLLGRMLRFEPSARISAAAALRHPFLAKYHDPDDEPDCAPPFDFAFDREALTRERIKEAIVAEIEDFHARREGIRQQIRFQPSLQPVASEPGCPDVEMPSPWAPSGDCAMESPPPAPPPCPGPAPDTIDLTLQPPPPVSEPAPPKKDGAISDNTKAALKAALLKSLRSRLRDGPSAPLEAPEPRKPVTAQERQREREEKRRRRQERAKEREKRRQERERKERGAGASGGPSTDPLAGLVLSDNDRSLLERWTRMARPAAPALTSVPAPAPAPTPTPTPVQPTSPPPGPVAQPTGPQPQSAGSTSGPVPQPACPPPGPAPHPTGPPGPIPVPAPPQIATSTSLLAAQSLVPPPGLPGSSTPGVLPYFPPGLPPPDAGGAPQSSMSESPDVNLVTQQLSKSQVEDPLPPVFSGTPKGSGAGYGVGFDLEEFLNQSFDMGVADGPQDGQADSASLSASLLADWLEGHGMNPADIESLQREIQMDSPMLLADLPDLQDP
# [15] = target: Cyclin-dependent kinase-like 2 (Homo sapiens) (UniProt Q92772)
# [16] = target: Serine/threonine-protein kinase 25 (Homo sapiens) (UniProt O00506)
# [17] = target: Ribosomal protein S6 kinase alpha-2 (Homo sapiens) (UniProt Q15349)
# [18] = target: Sigma intracellular receptor 2 (Homo sapiens, UniProt Q5BJF2); settings: Compound concentration 10.0 uM
# [19] = target: Mitogen-activated protein kinase 9 (Homo sapiens) (UniProt P45984)
# [20] = test system: Receptor-type tyrosine-protein kinase FLT3 (Homo sapiens), P36888 [K663Q]
# [21] = target: Ribosomal protein S6 kinase alpha-6 (Homo sapiens) (UniProt Q9UK32)
# Sequence of Ribosomal protein S6 kinase alpha-6 (Homo sapiens) (Q9UK32 whole entry, canonical isoform): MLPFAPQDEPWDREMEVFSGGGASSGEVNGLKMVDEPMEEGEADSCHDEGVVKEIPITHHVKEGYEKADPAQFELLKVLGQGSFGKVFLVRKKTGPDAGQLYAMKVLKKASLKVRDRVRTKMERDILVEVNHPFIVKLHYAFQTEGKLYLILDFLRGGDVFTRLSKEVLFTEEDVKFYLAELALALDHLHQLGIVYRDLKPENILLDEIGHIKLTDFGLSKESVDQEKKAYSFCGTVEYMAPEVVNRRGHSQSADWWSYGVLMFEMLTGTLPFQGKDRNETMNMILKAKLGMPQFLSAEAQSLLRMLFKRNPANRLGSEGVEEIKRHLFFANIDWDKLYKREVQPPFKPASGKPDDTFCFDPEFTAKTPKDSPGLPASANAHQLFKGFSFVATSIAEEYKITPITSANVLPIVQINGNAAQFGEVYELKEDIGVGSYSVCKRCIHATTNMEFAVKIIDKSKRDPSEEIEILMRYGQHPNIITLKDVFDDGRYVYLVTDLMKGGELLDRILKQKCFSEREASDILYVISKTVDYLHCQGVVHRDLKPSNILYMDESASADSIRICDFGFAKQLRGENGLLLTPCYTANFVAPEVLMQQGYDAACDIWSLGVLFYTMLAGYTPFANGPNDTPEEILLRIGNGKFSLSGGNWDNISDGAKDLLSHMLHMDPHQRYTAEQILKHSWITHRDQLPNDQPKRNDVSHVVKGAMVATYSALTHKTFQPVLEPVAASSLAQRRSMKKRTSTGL
# [22] = test system: Phosphatidylinositol 4,5-bisphosphate 3-kinase catalytic subunit alpha isoform (Homo sapiens), P42336 [E542K]
# [23] = target: Activated CDC42 kinase 1 (Homo sapiens) (UniProt Q07912)
# [24] = target: Phosphatidylinositol 5-phosphate 4-kinase type-2 gamma (Homo sapiens) (UniProt Q8TBX8)
# Sequence of Phosphatidylinositol 5-phosphate 4-kinase type-2 gamma (Homo sapiens) (Q8TBX8 whole entry): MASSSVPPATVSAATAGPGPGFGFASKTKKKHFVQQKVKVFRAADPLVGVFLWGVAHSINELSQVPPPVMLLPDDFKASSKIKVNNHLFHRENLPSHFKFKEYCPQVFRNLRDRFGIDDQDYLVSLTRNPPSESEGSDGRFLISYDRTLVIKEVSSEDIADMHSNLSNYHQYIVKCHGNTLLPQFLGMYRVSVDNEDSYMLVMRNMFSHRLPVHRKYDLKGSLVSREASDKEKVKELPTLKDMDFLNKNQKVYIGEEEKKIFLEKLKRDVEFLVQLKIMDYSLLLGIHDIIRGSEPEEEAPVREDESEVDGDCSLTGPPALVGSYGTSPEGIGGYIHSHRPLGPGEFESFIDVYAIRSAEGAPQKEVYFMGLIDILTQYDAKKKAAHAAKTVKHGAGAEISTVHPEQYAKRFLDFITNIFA
# [25] = target: Ephrin type-B receptor 6 (Homo sapiens) (UniProt O15197)
# [26] = target: cAMP-dependent protein kinase catalytic subunit PRKX (Homo sapiens) (UniProt P51817)
# [27] = target: Fibroblast growth factor receptor 3 (Homo sapiens, UniProt P22607)
# [28] = target: Serine/threonine-protein kinase 33 (Homo sapiens) (UniProt Q9BYT3)
# Sequence of Serine/threonine-protein kinase 33 (Homo sapiens) (Q9BYT3 whole entry, looked up, canonical isoform): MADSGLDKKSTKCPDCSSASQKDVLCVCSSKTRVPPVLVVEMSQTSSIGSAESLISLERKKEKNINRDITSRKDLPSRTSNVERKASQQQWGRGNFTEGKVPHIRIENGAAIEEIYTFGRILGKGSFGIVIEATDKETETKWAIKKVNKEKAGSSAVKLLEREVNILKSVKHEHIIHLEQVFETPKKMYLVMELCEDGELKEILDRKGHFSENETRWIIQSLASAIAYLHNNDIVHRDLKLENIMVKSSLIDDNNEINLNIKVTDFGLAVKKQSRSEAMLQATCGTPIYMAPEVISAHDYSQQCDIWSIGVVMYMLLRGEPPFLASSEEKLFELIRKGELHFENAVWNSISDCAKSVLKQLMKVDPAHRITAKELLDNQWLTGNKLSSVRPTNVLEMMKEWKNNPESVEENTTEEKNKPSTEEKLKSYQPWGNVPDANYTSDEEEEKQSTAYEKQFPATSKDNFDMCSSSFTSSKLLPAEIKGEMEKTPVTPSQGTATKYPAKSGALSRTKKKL
# [29] = target: Phosphorylase b kinase regulatory subunit alpha, liver isoform (Homo sapiens) (UniProt P46019)
# [30] = target: Cyclin-dependent kinase 11A (Homo sapiens) (UniProt Q9UQ88)
# Sequence of Cyclin-dependent kinase 11A (Homo sapiens) (Q9UQ88 whole entry): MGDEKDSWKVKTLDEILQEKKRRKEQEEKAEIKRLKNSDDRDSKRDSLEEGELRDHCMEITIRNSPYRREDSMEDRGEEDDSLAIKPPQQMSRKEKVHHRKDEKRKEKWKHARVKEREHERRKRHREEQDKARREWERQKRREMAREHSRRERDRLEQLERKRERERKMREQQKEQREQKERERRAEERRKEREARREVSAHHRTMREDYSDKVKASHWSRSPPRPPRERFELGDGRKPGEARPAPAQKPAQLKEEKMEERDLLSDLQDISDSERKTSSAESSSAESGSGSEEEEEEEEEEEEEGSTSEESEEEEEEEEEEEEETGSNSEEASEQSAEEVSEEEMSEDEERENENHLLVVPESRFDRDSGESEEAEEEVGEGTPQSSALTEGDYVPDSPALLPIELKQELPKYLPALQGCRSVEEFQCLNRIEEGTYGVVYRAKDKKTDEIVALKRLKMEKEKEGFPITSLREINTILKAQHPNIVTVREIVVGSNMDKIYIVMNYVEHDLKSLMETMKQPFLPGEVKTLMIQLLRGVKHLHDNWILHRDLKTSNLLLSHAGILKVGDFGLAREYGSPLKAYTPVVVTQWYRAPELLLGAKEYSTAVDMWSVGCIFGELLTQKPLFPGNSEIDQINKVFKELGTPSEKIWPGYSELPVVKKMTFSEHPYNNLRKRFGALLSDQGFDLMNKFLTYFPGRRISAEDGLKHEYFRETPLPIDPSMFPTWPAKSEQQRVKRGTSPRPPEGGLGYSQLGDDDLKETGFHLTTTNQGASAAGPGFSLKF
# [31] = target: Serine/threonine-protein kinase TAO2 (Homo sapiens) (UniProt Q9UL54)
# [32] = target: Cyclin-dependent kinase-like 5 (Homo sapiens) (UniProt O76039)
# [33] = test system: Epidermal growth factor receptor (Homo sapiens), P00533 [UNDEFINED MUTATION]
# [34] = Compound concentration 1000.0 nM
# [35] = Compound concentration 100.0 nM
# Sequence of TRAF2 and NCK-interacting protein kinase (Homo sapiens) (Q9UKE5 whole entry, looked up): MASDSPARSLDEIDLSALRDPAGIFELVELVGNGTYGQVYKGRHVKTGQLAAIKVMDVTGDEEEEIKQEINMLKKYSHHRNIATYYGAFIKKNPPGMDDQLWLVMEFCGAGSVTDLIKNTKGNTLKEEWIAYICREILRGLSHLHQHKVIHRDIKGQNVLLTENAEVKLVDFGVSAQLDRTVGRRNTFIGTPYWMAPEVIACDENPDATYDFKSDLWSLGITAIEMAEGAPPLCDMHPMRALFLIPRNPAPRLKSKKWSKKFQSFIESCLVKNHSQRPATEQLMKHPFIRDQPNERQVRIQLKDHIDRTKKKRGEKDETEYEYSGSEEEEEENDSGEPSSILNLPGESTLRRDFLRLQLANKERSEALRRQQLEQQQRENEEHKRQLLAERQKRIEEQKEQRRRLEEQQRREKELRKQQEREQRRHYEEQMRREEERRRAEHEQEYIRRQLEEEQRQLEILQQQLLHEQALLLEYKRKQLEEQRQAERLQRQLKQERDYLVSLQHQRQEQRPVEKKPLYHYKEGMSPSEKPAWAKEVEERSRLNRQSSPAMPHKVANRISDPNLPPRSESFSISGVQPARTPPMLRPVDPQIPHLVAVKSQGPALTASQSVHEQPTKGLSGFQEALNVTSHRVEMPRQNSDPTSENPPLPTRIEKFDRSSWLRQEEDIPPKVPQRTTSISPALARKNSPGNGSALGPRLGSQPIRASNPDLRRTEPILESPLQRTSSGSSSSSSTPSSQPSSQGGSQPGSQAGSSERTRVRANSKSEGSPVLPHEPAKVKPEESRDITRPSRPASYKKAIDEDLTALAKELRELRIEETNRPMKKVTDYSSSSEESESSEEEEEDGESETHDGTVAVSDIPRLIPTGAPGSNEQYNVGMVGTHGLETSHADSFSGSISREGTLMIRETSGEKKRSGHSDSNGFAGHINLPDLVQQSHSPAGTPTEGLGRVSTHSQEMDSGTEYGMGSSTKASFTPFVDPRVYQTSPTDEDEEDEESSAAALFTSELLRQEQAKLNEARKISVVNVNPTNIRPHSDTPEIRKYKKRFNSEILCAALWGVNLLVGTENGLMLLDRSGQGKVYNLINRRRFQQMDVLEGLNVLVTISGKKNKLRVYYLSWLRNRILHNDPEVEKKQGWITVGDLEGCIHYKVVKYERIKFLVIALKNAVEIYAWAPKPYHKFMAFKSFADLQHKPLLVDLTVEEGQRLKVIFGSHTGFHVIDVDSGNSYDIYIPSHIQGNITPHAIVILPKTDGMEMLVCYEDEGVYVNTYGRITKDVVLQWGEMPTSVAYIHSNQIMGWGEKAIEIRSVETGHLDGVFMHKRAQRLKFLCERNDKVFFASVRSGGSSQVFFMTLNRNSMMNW
smiles,measurement,setting,value
Cc1cc(NC(=O)c2cccc(S(F)(F)(F)(F)F)c2)cc(-n2ccn3nc(-c4cccnc4)cc23)c1 [BAY-309],residual activity,[1]; [34],100%
same,residual activity,[2]; [34],96.9%
same,residual activity,[3]; [34],100%
same,residual activity,[4]; [34],87.6%
same,residual activity,[5]; [34],84.8%
same,residual activity,[6]; [34],100%
same,residual activity,[7]; [34],100%
same,residual activity,[8]; [34],100%
same,residual activity,[9]; [34],100%
same,inhibition,[10],-5.04%
same,residual activity,[11]; [34],60.3%
same,residual activity,[12]; [34],0%
same,EC50,[13],2.7 µM (not active)
same,IC50,[13],9.3 µM (not active)
same,residual activity,[14]; [34],90%
same,residual activity,[15]; [34],100%
same,residual activity,[16]; [34],59.5%
same,residual activity,[17]; [34],100%
same,inhibition,[18],68.7%
same,residual activity,[19]; [34],76.9%
same,residual activity,[20]; [34],100%
same,residual activity,[21]; [34],100%
same,residual activity,[22]; [34],75.2%
same,residual activity,[23]; [34],100%
same,residual activity,[24]; [34],99.1%
same,residual activity,[25]; [34],100%
same,residual activity,[26]; [34],100%
same,residual activity,[27]; [34],90.7%
same,residual activity,[28]; [34],87.8%
same,residual activity,[29]; [34],100%
same,residual activity,[30]; [34],95.4%
same,residual activity,[31]; [34],91.3%
same,residual activity,[32]; [34],100%
same,residual activity,[33]; [34],100%
Cc1cc(C)c(-n2ccn3nc(-c4cccnc4)cc23)cc1NC(=O)c1cc(C#N)cc(S(F)(F)(F)(F)F)c1 [BAY-826],residual activity,[1]; [35],85.1%
same,residual activity,[2]; [35],95.3%
same,residual activity,[3]; [35],97.4%
same,residual activity,[4]; [35],66.2%
same,residual activity,[5]; [35],92.4%
same,residual activity,[6]; [35],100%
same,residual activity,[7]; [35],100%
same,residual activity,[8]; [35],85.4%
same,residual activity,[9]; [35],98.9%
same,inhibition,[10],-7.91%
same,residual activity,[11]; [35],100%
same,residual activity,[12]; [35],0.1%
same,EC50,[13],0.00054 µM (active)
same,IC50,[13],0.003 µM (active)
same,residual activity,[14]; [35],100%
same,residual activity,[15]; [35],75.6%
same,residual activity,[16]; [35],79.1%
same,residual activity,[17]; [35],65.1%
same,inhibition,[18],64.4%
same,residual activity,[19]; [35],66.1%
same,residual activity,[20]; [35],100%
same,residual activity,[21]; [35],80.4%
same,residual activity,[22]; [35],83.6%
same,residual activity,[23]; [35],83.6%
same,residual activity,[24]; [35],89.9%
same,residual activity,[25]; [35],3%
same,residual activity,[26]; [35],68.5%
same,residual activity,[27]; [35],95.6%
same,residual activity,[28]; [35],100%
same,residual activity,[29]; [35],78.3%
same,residual activity,[30]; [35],89.9%
same,residual activity,[31]; [35],48.2%
same,residual activity,[32]; [35],100%
same,residual activity,[33]; [35],72.9%
